{
  "source": "paper PMC8619046",
  "about": "“ABCB1 and ABCG2 Control Brain Accumulation and Intestinal Disposition of the Novel ROS1/TRK/ALK Inhibitor Repotrectinib, While OATP1A/1B, ABCG2, and CYP3A Limit Its Oral Availability” (Pharmaceutics, 2021)",
  "assay": "4-h oral plasma pharmacokinetics and tissue distribution, male wild-type and Oatp1a/1b−/− mice",
  "type": "in vivo",
  "conditions": "10 mg/kg oral; for Tmax: Table S2, median (range); for Fold change Cliver / Fold change SIC (% of dose) / Fold change ratio (SIC (%)-to-plasma) / Fold change ratio (brain-to-plasma) / Fold change ratio (liver-to-plasma) / Fold change ratio (testis-to-plasma) / Fold increase Cbrain / Fold increase Ctestis / Fold increase AUC0-4h: vs wild-type; for Kp at 4 h / concentration at 4 h / Cmax / AUC(0-t): male, po; for AUC(0-t): read-out: AUC0-4h",
  "description": "Mice with similar average ages (and body weights) were randomly allocated in experimental groups as far as possible. Mice were maintained in a temperature-controlled and specific pathogen-free environment with a 12-h light and 12-h dark cycle and they received a standard diet (Transbreed, SDS Diets, Technilab-BMI, Someren, The Netherlands) and acidified water ad libitum. […] Given the objective main readout (repotrectinib plasma and tissue concentrations as measured by LC-MS/MS), no blinding method was applied.\nRepotrectinib was dissolved in dimethyl sulfoxide (DMSO) at a concentration of 50 mg/mL. This stock solution was first diluted 3-fold with ethanol/polysorbate 80 (1/1; v/v), followed by further dilution with a 10 mM hydrochloric acid solution, yielding a dosing solution of 1 mg/mL, freshly prepared on the day of experiment. Final concentrations of the solvents in the administration solution were: 2%, 2%, 2%, and 94% (all v/v) for DMSO, ethanol, polysorbate 80, and 10 mM hydrochloric acid solution, respectively.\nTo minimize variation in absorption upon oral administration, mice were fasted for 2–3 h before repotrectinib (10 mg/kg body weight) was administered by gavage into the stomach at 10 µL/g body weight, with a blunt-ended needle. Tail vein serial blood samples were collected at 0.125, 0.25, 0.5, 1, 2 and 4 h using heparinized capillary tubes (Sarstedt, Nümbrecht, Germany) for the 8-h experiments. For the 4- and 2-h experiments, blood samplings were performed from the tail vein with the same schedule, but terminated at 2 and 1 h, respectively. Eight, four, or two hours after oral administration, mice were deeply anesthetized with 2–3% isoflurane, followed by cardiac puncture to collect blood in Eppendorf tubes containing heparin as an anticoagulant. Brain, liver, spleen, kidney, lung, small intestine, and testis were rapidly collected after sacrificing the mice by cervical dislocation. The small intestinal contents (SIC) were separated from small intestinal tissue (SI), which was flushed and rinsed with cold saline to remove any residual feces. Brain, liver, spleen, kidney, lung, SI, SIC, and testis were homogenized with 1, 3, 1, 2, 1, 3, 2, and 1 mL of 2% BSA (w/v), respectively. Plasma fraction was isolated from blood by centrifugation at 9000× g for 6 min at 4 °C. All samples were stored at −30 °C until analysis.\nA sensitive and specific liquid chromatography-tandem mass spectrometry method using protein precipitation pre-treatment was adopted to quantify the concentration of repotrectinib in DMEM medium, plasma samples and tissue homogenates.\nA non-compartmental model using the PKSolver add-in program for Microsoft Excel was adopted to calculate the pharmacokinetic parameters of repotrectinib. Oral availability was assessed by the plasma area under the curve (AUC), calculated using repotrectinib plasma concentration-time curves with the linear trapezoidal rule without extrapolating the infinity. Statistical testing was performed in Graphpad Prism7 (Graphpad Software, La Jolla, CA, USA). All data are presented as geometric means ± SD. Heteroscedastic data were log-transformed before applying statistical analysis. When differences between two groups were compared, the two-sided unpaired Student’s t test was used. One-way analysis of variance (ANOVA) was applied when multiple groups were compared, and the Bonferroni post hoc correction was used to accommodate multiple testing. Differences were considered statistically significant when P < 0.05.",
  "key": {"[1]": {"conditions": "Table S2, male Oatp1a/1b−/− mice"}, "[2]": {"conditions": "FVB, mouse, plasma, 10 mg/kg, Table S2, male Oatp1a/1b−/− mice"}, "[3]": {"conditions": "FVB, mouse, plasma, 10 mg/kg, Table S2, male wild-type mice"}},
  "note": "Values joined by “and” are separate entries in the source; they are usually repeats but may differ in a detail not shown here. Equal entries are not always repeated. Where two headings read alike, the source gives them in different places.",
  "data": [
    {"smiles": "C[C@H]1CNC(=O)c2cnn3ccc(nc23)N[C@H](C)c2cc(F)ccc2O1", "note": "[repotrectinib]", "values": [
      {"measurement": "Tmax", "setting": "FVB, mouse, plasma, male wild-type mice, read-out: Tmax", "value": 30, "unit": "min"},
      {"measurement": "SIC (% of dose)", "setting": "[1]", "value": "8.52 ± 3.80 % of dose"},
      {"measurement": "SIC (%)-to-plasma ratio", "setting": "[1]", "value": "5.81 ± 2.09 *10-3"},
      {"measurement": "Fold change Cliver", "setting": "[1]", "value": 0.94},
      {"measurement": "Fold change SIC (% of dose)", "setting": "[1]", "value": 1.53},
      {"measurement": "Fold change ratio (SIC (%)-to-plasma)", "setting": "[1]", "value": 0.66},
      {"measurement": "Fold change ratio (brain-to-plasma)", "setting": "[1]", "value": 1.20},
      {"measurement": "Fold change ratio (liver-to-plasma)", "setting": "[1]", "value": 0.41},
      {"measurement": "Fold change ratio (testis-to-plasma)", "setting": "[1]", "value": 0.79},
      {"measurement": "Fold increase Cbrain", "setting": "[1]", "value": 2.71},
      {"measurement": "Fold increase Ctestis", "setting": "[1]", "value": 1.70},
      {"measurement": "Fold increase AUC0-4h", "setting": "Table S2, male Oatp1a/1b−/− mice, 10 mg/kg", "value": "2.02 and 2"},
      {"measurement": "SIC (% of dose)", "setting": "Table S2, male wild-type mice", "value": "5.56 ± 1.34 % of dose"},
      {"measurement": "SIC (%)-to-plasma ratio", "setting": "Table S2, male wild-type mice", "value": "8.79 ± 2.41 *10-3"},
      {"measurement": "Fold change Cliver", "setting": "Table S2, male wild-type mice", "value": 1.00},
      {"measurement": "Fold change SIC (% of dose)", "setting": "Table S2, male wild-type mice", "value": 1.00},
      {"measurement": "Fold change ratio (SIC (%)-to-plasma)", "setting": "Table S2, male wild-type mice", "value": 1.00},
      {"measurement": "Fold change ratio (brain-to-plasma)", "setting": "Table S2, male wild-type mice", "value": 1.00},
      {"measurement": "Fold change ratio (liver-to-plasma)", "setting": "Table S2, male wild-type mice", "value": 1.00},
      {"measurement": "Fold change ratio (testis-to-plasma)", "setting": "Table S2, male wild-type mice", "value": 1.00},
      {"measurement": "Fold increase AUC0-4h", "setting": "Table S2, male wild-type mice", "value": 1.00},
      {"measurement": "Fold increase Cbrain", "setting": "Table S2, male wild-type mice", "value": 1.00},
      {"measurement": "Fold increase Ctestis", "setting": "Table S2, male wild-type mice", "value": 1.00},
      {"measurement": "Tmax", "setting": "male Oatp1a/1b−/− mice", "value": "0.5 (0.25-1) h"},
      {"measurement": "liver-to-plasma ratio, fold decrease", "setting": "male Oatp1a/1b−/− mice vs wild-type", "value": 2.5, "unit": "fold"},
      {"measurement": "Kp at 4 h", "setting": "FVB, mouse, brain, 10 mg/kg, Table S2, male Oatp1a/1b−/− mice, read-out: Brain-to-plasma ratio", "value": "0.18 ± 0.04"},
      {"measurement": "concentration at 4 h", "setting": "FVB, mouse, brain, 10 mg/kg, Table S2, male Oatp1a/1b−/− mice, read-out: Cbrain", "value": "258 ± 31", "unit": "ng/g"},
      {"measurement": "Kp at 4 h", "setting": "FVB, mouse, brain, 10 mg/kg, Table S2, male wild-type mice, read-out: Brain-to-plasma ratio", "value": "0.15 ± 0.03"},
      {"measurement": "concentration at 4 h", "setting": "FVB, mouse, brain, 10 mg/kg, Table S2, male wild-type mice, read-out: Cbrain", "value": "95.1 ± 23.5", "unit": "ng/g"},
      {"measurement": "concentration at 4 h", "setting": "FVB, mouse, liver, 10 mg/kg, Table S2, male Oatp1a/1b−/− mice, read-out: Cliver", "value": "6240 ± 1400", "unit": "ng/g"},
      {"measurement": "Kp at 4 h", "setting": "FVB, mouse, liver, 10 mg/kg, Table S2, male Oatp1a/1b−/− mice, read-out: Liver-to-plasma ratio", "value": "4.3 ± 0.5"},
      {"measurement": "concentration at 4 h", "setting": "FVB, mouse, liver, 10 mg/kg, Table S2, male wild-type mice, read-out: Cliver", "value": "6630 ± 1160", "unit": "ng/g"},
      {"measurement": "Kp at 4 h", "setting": "FVB, mouse, liver, 10 mg/kg, Table S2, male wild-type mice, read-out: Liver-to-plasma ratio", "value": "10.5 ± 1.9"},
      {"measurement": "Cmax", "setting": "[2]", "value": "5.07 ± 0.59", "unit": "µg/mL"},
      {"measurement": "AUC(0-t)", "setting": "[2]", "value": "14.1 ± 1.53", "unit": "µg·h/mL"},
      {"measurement": "Cmax", "setting": "[3]", "value": "3.08 ± 1.44", "unit": "µg/mL"},
      {"measurement": "AUC(0-t)", "setting": "[3]", "value": "6.99 ± 2.46", "unit": "µg·h/mL"},
      {"measurement": "concentration at 4 h", "setting": "FVB, mouse, testis, 10 mg/kg, Table S2, male Oatp1a/1b−/− mice, read-out: Ctestis", "value": "264 ± 37", "unit": "ng/g"},
      {"measurement": "Kp at 4 h", "setting": "FVB, mouse, testis, 10 mg/kg, Table S2, male Oatp1a/1b−/− mice, read-out: Testis-to-plasma ratio", "value": "0.19 ± 0.05"},
      {"measurement": "concentration at 4 h", "setting": "FVB, mouse, testis, 10 mg/kg, Table S2, male wild-type mice, read-out: Ctestis", "value": "155 ± 55", "unit": "ng/g"},
      {"measurement": "Kp at 4 h", "setting": "FVB, mouse, testis, 10 mg/kg, Table S2, male wild-type mice, read-out: Testis-to-plasma ratio", "value": "0.24 ± 0.07"}
    ]}
  ]
}
